# Test results: patent US20240092784A1, “CONDENSED HETEROCYCLIC COMPOUND” (NISSAN CHEMICAL CORPORATION, priority 2020, published 2024)
# pIC50: −log10 of the molar value.
# Biological target: human SPR (Homo sapiens (Human), UniProt P35270)
# Assay: Evaluation Example 2: Measurement of human SPR inhibitory activity (seven concentrations, sepiapterin absorbance at 420 nm)
# Format: biochemical
# Details: Evaluation Example 2, seven concentrations 0.14 nM to 100 nM, 240 minutes at room temperature, read-out: IC50
# Method in brief: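 His-tagged full-length human SPR (1-261) was expressed in E. coli and the tag removed. Enzyme at 150 ng/mL in 100 mM Tris-HCl pH 7.5/0.01% BSA was mixed with compound (0.14–100 nM, seven points), 120 μM sepiapterin and 160 μM NADPH, both as added-solution concentrations. After 240 min at room temperature, remaining sepiapterin was read at 420 nm to give percent inhibition.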
# Sequence of human SPR (P35270 whole entry): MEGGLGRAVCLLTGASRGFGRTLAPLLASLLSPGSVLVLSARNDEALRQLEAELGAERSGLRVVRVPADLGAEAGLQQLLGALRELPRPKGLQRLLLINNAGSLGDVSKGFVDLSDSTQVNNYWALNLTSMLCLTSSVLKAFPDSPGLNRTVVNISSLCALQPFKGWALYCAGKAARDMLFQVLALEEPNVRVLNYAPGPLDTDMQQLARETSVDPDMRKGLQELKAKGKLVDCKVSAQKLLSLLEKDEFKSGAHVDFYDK
row,SMILES,pIC50
1,"Cc1nn2c(O)c(C(=O)NC3CC3)c(=O)n(CC(C)C)c2c1/C=C/C(=O)N1C[C@H]2COC[C@H]2C1 [Synthesis Example 628, N-Cyclopropyl-7-hydroxy-4-isobutyl-2-methyl-5-oxo-3-((E)-3-oxo-3-((3aR,6aS)-tetrahydro-1H-furo[3,4-c]pyrrol-5(3H)-yl)prop-1-en-1-yl)-4,5-dihydropyrazolo[1,5-a]pyrimidine-6-carboxamide]",9.08
2,"CC(C)Cn1c(=O)c(C(=O)NC2CC2)c(O)n2ncc(/C=C/C(=O)N3CCC(C(N)=O)CC3)c12 [compound 477, (E)-3-(3-(4-Carbamoylpiperidin-1-yl)-3-oxoprop-1-en-1-yl)-N-cyclopropyl-7-hydroxy-4-isobutyl-5-oxo-4,5-dihydropyrazolo[1,5-a]pyrimidine-6-carboxamide]",9.19
3,"CC(C)(C)Cn1c(=O)c(C(=O)NCC(F)(F)F)c(O)n2nc(Br)cc12 [Synthesis Example 272, 2-Bromo-7-hydroxy-4-neopentyl-5-oxo-N-(2,2,2-trifluoroethyl)-4,5-dihydropyrazolo[1,5-a]pyrimidine-6-carboxamide]",8.42
4,"CNc1nn2c(O)c(C(=O)NC3CC3)c(=O)n(CC(C)C)c2c1/C=C/C(=O)N1CCCC1 [Synthesis Example 427, (E)-N-Cyclopropyl-7-hydroxy-4-isobutyl-2-(methylamino)-5-oxo-3-(3-oxo-3-(pyrrolidin-1-yl)prop-1-en-1-yl)-4,5-dihydropyrazolo[1,5-a]pyrimidine-6-carboxamide]",9.02
5,"CC(C)(C)Cn1c(=O)c(C(=O)NC2CC2)c(O)n2nc(Nc3cc(C#N)ncn3)cc12 [Synthesis Example 329, 2-((6-Cyanopyrimidin-4-yl)amino)-N-cyclopropyl-7-hydroxy-4-neopentyl-5-oxo-4,5-dihydropyrazolo[1,5-a]pyrimidine-6-carboxamide]",8.77
6,"CC(C)(C)Cn1c(=O)c(C(=O)NC2CC2)c(O)n2nc3c(c12)CCN3 [Synthesis Example 396, N-Cyclopropyl-7-hydroxy-4-neopentyl-5-oxo-2,3,4,5-tetrahydro-1H-pyrrolo[2′,3′:3,4]pyrazolo[1,5-a]pyrimidine-6-carboxamide]",8.87
7,"Cc1nn2c(O)c(C(=O)NC3CC3)c(=O)n(CC(C)C)c2c1/C=C/C(=O)N1CCOC[C@@H]1C [compound 568, (S,E)-N-Cyclopropyl-7-hydroxy-4-isobutyl-2-methyl-3-(3-(3-methylmorpholino)-3-oxoprop-1-en-1-yl)-5-oxo-4,5-dihydropyrazolo[1,5-a]pyrimidine-6-carboxamide]",9.17
8,"Cc1nn2c(O)c(C(=O)NC3CC3)c(=O)n(CC(C)C)c2c1/C=C/C(=O)N1CCc2cc(C#N)ccc21 [Synthesis Example 669, (E)-3-(3-(5-Cyanoindolin-1-yl)-3-oxoprop-1-en-1-yl)-N-cyclopropyl-7-hydroxy-4-isobutyl-2-methyl-5-oxo-4,5-dihydropyrazolo[1,5-a]pyrimidine-6-carboxamide]",8.74
9,"CNc1ccncc1-c1cc2n(CC(C)(C)C)c(=O)c(C(=O)NC3CC3)c(O)n2n1 [Synthesis Example 308, N-Cyclopropyl-7-hydroxy-2-(4-(methylamino)pyridin-3-yl)-4-neopentyl-5-oxo-4,5-dihydropyrazolo[1,5-a]pyrimidine-6-carboxamide]",8.44
10,"CC(C)Cn1c(=O)c(C(=O)NC2CC2)c(O)n2ncc(/C=C/C(=O)N3CC(F)(F)C3)c12 [compound 555, (E)-N-Cyclopropyl-3-(3-(3,3-difluoroazetidin-1-yl)-3-oxoprop-1-en-1-yl)-7-hydroxy-4-isobutyl-5-oxo-4,5-dihydropyrazolo[1,5-a]pyrimidine-6-carboxamide]",9.09
11,"CC(C)Cn1c(=O)c(C(=O)NC2CC2)c(O)n2ncc(/C=C/C(=O)N3CCC[C@@H]3C)c12 [compound 458, (S,E)-N-Cyclopropyl-7-hydroxy-4-isobutyl-3-(3-(2-methylpyrrolidin-1-yl)-3-oxoprop-1-en-1-yl)-5-oxo-4,5-dihydropyrazolo[1,5-a]pyrimidine-6-carboxamide]",9.10
12,"CC(C)Cn1c(=O)c(C(=O)NC2CC2)c(O)n2ncc(/C=C/C(=O)N3CCCC3)c12 [compound 452, (E)-N-Cyclopropyl-7-hydroxy-4-isobutyl-5-oxo-3-(3-oxo-3-(pyrrolidin-1-yl)prop-1-en-1-yl)-4,5-dihydropyrazolo[1,5-a]pyrimidine-6-carboxamide]",9.08
13,"CC(C)Cn1c(=O)c(C(=O)NC2CC2)c(O)n2ncc(/C=C/C(=O)N3CCC(O)CC3)c12 [compound 476, (E)-N-Cyclopropyl-7-hydroxy-3-(3-(4-hydroxypiperidin-1-yl)-3-oxoprop-1-en-1-yl)-4-isobutyl-5-oxo-4,5-dihydropyrazolo[1,5-a]pyrimidine-6-carboxamide]",9.12
14,"CC(C)Cn1c(=O)c(C(=O)NC2CC2)c(O)n2ncc(/C=C/c3cccnc3)c12 [Synthesis Example 247, (E)-N-Cyclopropyl-7-hydroxy-4-isobutyl-5-oxo-3-(2-(pyridin-3-yl)vinyl)-4,5-dihydropyrazolo[1,5-a]pyrimidine-6-carboxamide]",9.03
15,"CC(C)Cn1c(=O)c(C(=O)NC2CC2)c(O)n2ncc(/C=C/C(=O)N3CCC[C@@H]3c3ccccc3)c12 [compound 607, (R,E)-N-Cyclopropyl-7-hydroxy-4-isobutyl-5-oxo-3-(3-oxo-3-(2-phenylpyrrolidin-1-yl)prop-1-en-1-yl)-4,5-dihydropyrazolo[1,5-a]pyrimidine-6-carboxamide]",8.78
16,"CC(C)Cn1c(=O)c(C(=O)NC2CC2)c(O)n2nc3[nH]ccc3c12 [Synthesis Example 399, N-Cyclopropyl-7-hydroxy-4-isobutyl-5-oxo-4,5-dihydro-1H-pyrrolo[2′,3′:3,4]pyrazolo[1,5-a]pyrimidine-6-carboxamide]",8.81
17,"Cc1nn2c(O)c(C(=O)NC3CC3)c(=O)n(CC(C)C)c2c1/C=C/C(=O)N1CCOC[C@@H]1c1ccccc1 [Synthesis Example 643, (S,E)-N-Cyclopropyl-7-hydroxy-4-isobutyl-2-methyl-5-oxo-3-(3-oxo-3-(3-phenylmorpholino)prop-1-en-1-yl)-4,5-dihydropyrazolo[1,5-a]pyrimidine-6-carboxamide]",8.86
18,CC(C)Cn1c(=O)c(C(=O)NC2CC2)c(O)n2ncc(/C=C/C(=O)N3CCC(C(C)(F)F)CC3)c12 [compound 469],9.05
19,"CC(C)Cn1c(=O)c(C(=O)NC2CC2)c(O)n2ncc(/C=C/C(=O)N3CCC(C(C)(C)O)CC3)c12 [compound 474, (E)-N-Cyclopropyl-7-hydroxy-3-(3-(4-(2-hydroxypropan-2-yl)piperidin-1-yl)-3-oxoprop-1-en-1-yl)-4-isobutyl-5-oxo-4,5-dihydropyrazolo[1,5-a]pyrimidine-6-carboxamide]",9.06

# Same assay, conditions: sepiapterin absorbance, Table 41, read-out: concentration at 50% inhibition of human SPR (IC50)
row,SMILES,pIC50
1,"Cc1nn2c(O)c(C(=O)NC3CC3)c(=O)n(CC(C)C)c2c1/C=C/C(=O)N1CCN(C)C[C@H]1C [Synthesis Example 702, (R,E)-N-Cyclopropyl-3-(3-(2,4-dimethylpiperazin-1-yl)-3-oxoprop-1-en-1-yl)-7-hydroxy-4-isobutyl-2-methyl-5-oxo-4,5-dihydropyrazolo[1,5-a]pyrimidine-6-carboxamide]",9.06
2,"Cc1nn2c(O)c(C(=O)NC3CC3)c(=O)n(CC(C)C)c2c1/C=C/C(=O)N1CCN(C)C[C@@H]1C [Synthesis Example 701, (S,E)-N-Cyclopropyl-3-(3-(2,4-dimethylpiperazin-1-yl)-3-oxoprop-1-en-1-yl)-7-hydroxy-4-isobutyl-2-methyl-5-oxo-4,5-dihydropyrazolo[1,5-a]pyrimidine-6-carboxamide]",9.01
3,"Cc1nn2c(O)c(C(=O)NC3CC3)c(=O)n(CC(C)C)c2c1/C=C/C(=O)N1C[C@@H](F)[C@H](F)C1 (single isomer, unassigned; isomer b) [Synthesis Example 756, N-Cyclopropyl-3-((E)-3-(trans-3,4-difluoropyrrolidin-1-yl)-3-oxoprop-1-en-1-yl)-7-hydroxy-4-isobutyl-2-methyl-5-oxo-4,5-dihydropyrazolo[1,5-a]pyrimidine-6-carboxamide (Isomer B)]",9.15
4,"CC(C)Cn1c(=O)c(C(=O)NC2CC2)c(O)n2ncc(/C=C/C(=O)N3CCc4cncnc43)c12 [Synthesis Example 724, (E)-N-Cyclopropyl-3-(3-(5,6-dihydro-7H-pyrrolo[2,3-d]pyrimidin-7-yl)-3-oxoprop-1-en-1-yl)-7-hydroxy-4-isobutyl-5-oxo-4,5-dihydropyrazolo[1,5-a]pyrimidine-6-carboxamide]",8.99
5,"Cc1nn2c(O)c(C(=O)NC3CC3)c(=O)n(CC(C)C)c2c1/C=C/C(=O)N1CCN(CC2CC(F)(F)C2)C[C@@H]1C [Synthesis Example 703, (S,E)-N-Cyclopropyl-3-(3-(4-((3,3-difluorocyclobutyl)methyl)-2-methylpiperazin-1-yl)-3-oxoprop-1-en-1-yl)-7-hydroxy-4-isobutyl-2-methyl-5-oxo-4,5-dihydropyrazolo[1,5-a]pyrimidine-6-carboxamide]",8.84
6,"COC[C@H]1COCCN1C(=O)/C=C/c1c(C)nn2c(O)c(C(=O)NC3CC3)c(=O)n(CC(C)(C)C)c12 [Synthesis Example 694, (S,E)-N-Cyclopropyl-7-hydroxy-3-(3-(3-(methoxymethyl)morpholino)-3-oxoprop-1-en-1-yl)-2-methyl-4-neopentyl-5-oxo-4,5-dihydropyrazolo[1,5-a]pyrimidine-6-carboxamide]",9.07
7,"Cc1nn2c(O)c(C(=O)NC3CC3)c(=O)n(CC(C)C)c2c1/C=C/C(=O)N(C)CC(C)(C)O [Synthesis Example 686, (E)-N-Cyclopropyl-7-hydroxy-3-(3-((2-hydroxy-2-methylpropyl)(methyl)amino)-3-oxoprop-1-en-1-yl)-4-isobutyl-2-methyl-5-oxo-4,5-dihydropyrazolo[1,5-a]pyrimidine-6-carboxamide]",9.00
